Laboratory results published in the NIST ThermoML archive (doi:10.1021/je030136n).

Experiment: xn = mol fraction of the nth substance listed
Settings: Liquid, Pulse-echo method

CCCCCCC [heptane] + CCCO
Settings | speed of sound [m/s]
308.07 K, 30400 kPa, x2 = 0 | 1290.3
308.07 K, 45590 kPa, x2 = 0 | 1368.7
308.08 K, 100 kPa, x2 = 0 | 1087.4
308.08 K, 15200 kPa, x2 = 0 | 1200.4
308.09 K, 121580 kPa, x2 = 0.7016 | 1655.6
308.09 K, 121580 kPa, x2 = 0.7986 | 1657.2
308.1 K, 121580 kPa, x2 = 0.3008 | 1657.5
308.1 K, 121580 kPa, x2 = 0.4992 | 1655.4
308.11 K, 30400 kPa, x2 = 0.6027 | 1293.7
308.11 K, 91190 kPa, x2 = 0 | 1562.4
308.11 K, 111450 kPa, x2 = 0.4992 | 1622.6
308.11 K, 111450 kPa, x2 = 0.7986 | 1625.7
308.12 K, 100 kPa, x2 = 0.3008 | 1086.3
308.12 K, 15200 kPa, x2 = 0.1008 | 1194.9
308.12 K, 60790 kPa, x2 = 0 | 1439
308.12 K, 75990 kPa, x2 = 0 | 1503.2
308.12 K, 91190 kPa, x2 = 0.7016 | 1555.2
308.13 K, 30400 kPa, x2 = 0.7986 | 1308.5
308.14 K, 45590 kPa, x2 = 0.6027 | 1368.1
308.14 K, 60790 kPa, x2 = 0.7986 | 1444.4
308.14 K, 91190 kPa, x2 = 0.3008 | 1552.6
308.14 K, 101320 kPa, x2 = 0.7986 | 1592.7
308.14 K, 111450 kPa, x2 = 0.3008 | 1624.1
308.15 K, 100 kPa, x2 = 0.7986 | 1128.4
308.15 K, 45590 kPa, x2 = 0.7986 | 1379.8
308.15 K, 60790 kPa, x2 = 0.3008 | 1431.2
308.15 K, 101320 kPa, x2 = 0.4992 | 1588.3
308.16 K, 45590 kPa, x2 = 0.3008 | 1362
308.16 K, 101320 kPa, x2 = 0.3008 | 1589.1
308.16 K, 101320 kPa, x2 = 0.7016 | 1590
308.16 K, 111450 kPa, x2 = 0.6027 | 1622.3
308.17 K, 75990 kPa, x2 = 0.3008 | 1494.3
308.17 K, 75990 kPa, x2 = 0.6027 | 1496.3
308.17 K, 111450 kPa, x2 = 0.7016 | 1623.4
308.17 K, 121580 kPa, x2 = 0 | 1668.6
308.18 K, 60790 kPa, x2 = 0.6027 | 1435
308.18 K, 75990 kPa, x2 = 0.4992 | 1495.2
308.18 K, 91190 kPa, x2 = 0.4992 | 1552.3
308.18 K, 91190 kPa, x2 = 0.6027 | 1552.8
308.18 K, 121580 kPa, x2 = 0.6027 | 1654.7
308.19 K, 30400 kPa, x2 = 0.3008 | 1284.8
308.19 K, 60790 kPa, x2 = 0.4992 | 1433
308.19 K, 75990 kPa, x2 = 0.7986 | 1503.4
308.2 K, 100 kPa, x2 = 0.4992 | 1095.2
308.2 K, 30400 kPa, x2 = 0.4992 | 1289.6
308.2 K, 45590 kPa, x2 = 0.4992 | 1365.2
308.2 K, 45590 kPa, x2 = 0.7016 | 1373.1
308.2 K, 75990 kPa, x2 = 0.1008 | 1497.7
308.2 K, 91190 kPa, x2 = 0.7986 | 1558.1
308.2 K, 101320 kPa, x2 = 0.1008 | 1593.7
308.21 K, 100 kPa, x2 = 0.6027 | 1103.5
308.21 K, 100 kPa, x2 = 0.7016 | 1114.7
308.21 K, 60790 kPa, x2 = 0.1008 | 1433.6
308.21 K, 60790 kPa, x2 = 0.7016 | 1438.8
308.21 K, 111450 kPa, x2 = 0 | 1634.6
308.22 K, 100 kPa, x2 = 0.1008 | 1082.2
308.22 K, 30400 kPa, x2 = 0.1008 | 1284.6
308.22 K, 30400 kPa, x2 = 0.7016 | 1300
308.22 K, 45590 kPa, x2 = 0.1008 | 1363.2
308.22 K, 91190 kPa, x2 = 0.1008 | 1556.7
308.22 K, 111450 kPa, x2 = 0.1008 | 1628.9
308.23 K, 75990 kPa, x2 = 0.7016 | 1499.1
308.23 K, 121580 kPa, x2 = 0.1008 | 1662.3
308.24 K, 101320 kPa, x2 = 0 | 1599.1
308.24 K, 101320 kPa, x2 = 0.6027 | 1588.1
313.08 K, 100 kPa, x2 = 0.7986 | 1109.7
313.08 K, 75990 kPa, x2 = 0.7986 | 1490.8
313.09 K, 30400 kPa, x2 = 0.4992 | 1273.3
313.09 K, 60790 kPa, x2 = 0.4992 | 1418.7
313.1 K, 100 kPa, x2 = 0 | 1066.1
313.1 K, 100 kPa, x2 = 0.6027 | 1083.9
313.1 K, 15200 kPa, x2 = 0 | 1182
313.1 K, 60790 kPa, x2 = 0.7986 | 1431
313.1 K, 75990 kPa, x2 = 0 | 1489.2
313.1 K, 121580 kPa, x2 = 0.7986 | 1645.9
313.11 K, 45590 kPa, x2 = 0.7986 | 1365.7
313.11 K, 91190 kPa, x2 = 0.7016 | 1542.7
313.11 K, 91190 kPa, x2 = 0.7986 | 1546.1
313.11 K, 101320 kPa, x2 = 0.7986 | 1580.9
313.12 K, 30400 kPa, x2 = 0 | 1273.3
313.12 K, 30400 kPa, x2 = 0.6027 | 1277.6
313.12 K, 45590 kPa, x2 = 0 | 1353
313.12 K, 45590 kPa, x2 = 0.3008 | 1346.5
313.12 K, 60790 kPa, x2 = 0 | 1424.3
313.12 K, 60790 kPa, x2 = 0.1008 | 1419
313.12 K, 75990 kPa, x2 = 0.6027 | 1482.9
313.12 K, 91190 kPa, x2 = 0.6027 | 1540
313.12 K, 101320 kPa, x2 = 0.6027 | 1575.9
313.12 K, 111450 kPa, x2 = 0.7986 | 1614.1
313.13 K, 45590 kPa, x2 = 0.1008 | 1347.6
313.13 K, 45590 kPa, x2 = 0.6027 | 1353
313.13 K, 91190 kPa, x2 = 0 | 1549
313.13 K, 101320 kPa, x2 = 0.7016 | 1578
313.13 K, 121580 kPa, x2 = 0 | 1656.4
313.14 K, 15200 kPa, x2 = 0.1008 | 1176.1
313.14 K, 60790 kPa, x2 = 0.6027 | 1420.9
313.14 K, 75990 kPa, x2 = 0.1008 | 1483.7
